Results published in US20210300924A1, “5-[6-[[3-(4,5,6,7-TETRAHYDROPYRAZOLO[4,3-C]PYRIDIN-1-YL)AZETIDIN-1-YL]METHYL]MORPHOLIN-4-YL]QUINOLINE-8-CARBONITRILE DERIVATIVES AND SIMILAR COMPOUNDS AS TLR7-9 ANTAGONISTS FOR TREATING SYSTEMIC LUPUS ERYTHEMATOSUS” (Hoffmann-La Roche Inc., priority 2018, published 2021).

Assays:
human TLR8 = target: T1, human TLR8 (Homo sapiens, UniProt Q9NR97); experiment: HEK293-Blue-hTLR-8 cells assay; assay type: cell-based; conditions: HEK293-Blue-hTLR8 cells, R848 stimulation, 20 hrs, SEAP reporter; read-out: HEK/hTLR8 IC50
T1 construct: host or cells: HEK293 (HEK-Blue hTLR8)
T1 sequence (Q9NR97 27-1041): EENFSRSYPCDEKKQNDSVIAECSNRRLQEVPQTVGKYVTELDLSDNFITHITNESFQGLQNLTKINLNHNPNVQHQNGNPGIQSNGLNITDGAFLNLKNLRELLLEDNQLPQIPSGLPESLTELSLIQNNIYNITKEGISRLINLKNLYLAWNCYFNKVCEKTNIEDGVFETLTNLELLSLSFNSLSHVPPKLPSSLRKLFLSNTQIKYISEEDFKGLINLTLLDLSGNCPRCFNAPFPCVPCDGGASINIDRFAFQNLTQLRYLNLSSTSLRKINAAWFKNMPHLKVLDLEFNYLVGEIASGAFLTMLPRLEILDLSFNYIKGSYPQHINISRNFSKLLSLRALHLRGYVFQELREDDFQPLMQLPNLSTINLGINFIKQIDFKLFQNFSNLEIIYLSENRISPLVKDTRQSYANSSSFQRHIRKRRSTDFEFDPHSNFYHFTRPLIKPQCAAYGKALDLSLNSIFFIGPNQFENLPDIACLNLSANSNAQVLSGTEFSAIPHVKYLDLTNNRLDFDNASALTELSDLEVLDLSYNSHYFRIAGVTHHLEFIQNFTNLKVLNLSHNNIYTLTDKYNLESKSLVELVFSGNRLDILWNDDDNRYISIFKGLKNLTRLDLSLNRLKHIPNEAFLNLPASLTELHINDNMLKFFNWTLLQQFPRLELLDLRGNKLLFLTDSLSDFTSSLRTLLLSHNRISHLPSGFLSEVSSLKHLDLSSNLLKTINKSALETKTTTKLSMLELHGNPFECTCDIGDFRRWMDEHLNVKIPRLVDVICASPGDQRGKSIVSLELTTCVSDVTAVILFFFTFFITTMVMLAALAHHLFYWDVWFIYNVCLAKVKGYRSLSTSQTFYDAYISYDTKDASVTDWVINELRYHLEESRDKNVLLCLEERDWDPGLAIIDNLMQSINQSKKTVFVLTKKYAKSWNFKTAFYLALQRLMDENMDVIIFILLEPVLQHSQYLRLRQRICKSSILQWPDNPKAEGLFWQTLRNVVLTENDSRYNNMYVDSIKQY
Text: A stable HEK293-Blue-hTLR-8 cell line was purchased from InvivoGen (Cat. #: hkb-htlr8, San Diego, Calif., USA). These cells were originally designed for studying the stimulation of human TLR8 by monitoring the activation of NF-κB. A SEAP (secreted embryonic alkaline phosphatase) reporter gene was placed under the control of the IFN-β minimal promoter fused to five NF-κB and AP-1-binding sites. The SEAP was induced by activating NF-κB and AP-1 via stimulating HEK-Blue hTLR8 cells with TLR8 ligands. Therefore the reporter expression was declined by TLR8 antagonist under the stimulation of a ligand, such as R848, for incubation of 20 hrs. The cell culture supernatant SEAP reporter activity was determined using QUANTI-Blue™ kit (Cat. #: rep-qb1, Invivogen, San Diego, Ca, USA) at a wavelength of 640 nm, a detection medium that turns purple or blue in the presence of alkaline phosphatase.
HEK293-Blue-hTLR8 cells were incubated at a density of 250,000-450,000 cells/mL in a volume of 170 μL in a 96-well plate in Dulbecco's Modified Eagle's medium (DMEM) containing 4.5 g/L glucose, 50 U/mL penicillin, […], […], 2 mM L-glutamine, 10% (v/v) heat-inactivated fetal bovine serum with addition of 20 μL test compound in a serial dilution in the presence of final DMSO at 1% and 10 μL of 60 uM R848 in above DMEM, perform incubation under 37° C. in a CO2 incubator for 20 hrs. Then 20 μL of the supernatant from each well was incubated with […] Quanti-blue substrate solution at 37° C. for 2 hrs and the absorbance was read at 620-655 nm using a spectrophotometer. The signaling pathway that TLR8 activation leads to downstream NF-κB activation has been widely accepted, and therefore similar reporter assay was modified for evaluating TLR8 antagonist.

[1] = Human microsome stability assay; assay type: in vitro ADME; conditions: 1 μM test compound, 0.5 mg/mL liver microsomal protein, 37° C., up to 30 minutes; 6.2 = detection limit
Procedure: Human Microsome Stability Assay
The human microsomal stability assay is used for early assessment of metabolic stability of a test compound in human liver microsomes.
Human liver microsomes (Cat. NO.: 452117, Corning, USA; Cat. NO.:H2610, Xenotech, USA) were preincubated with test compound for 10 minutes at 37° C. in 100 mM potassium phosphate buffer, pH 7.4. The reactions were initiated by adding NADPH regenerating system. The final incubation mixtures contained 1 μM test compound, 0.5 mg/mL liver microsomal protein, 1 mM MgCl2, 1 mM NADP, 1 unit/mL isocitric dehydrogenase and 6 mM isocitric acid in 100 mM potassium phosphate buffer, pH 7.4. After incubation times of 0, 3, 6, 9, 15 and 30 minutes at 37° C., 300 μL of cold acetonitrile (including internal standard) was added to 100 μL incubation mixture to terminate the reaction. Following precipitation and centrifugation, the amount of compound remaining in the samples were determined by LC-MS/MS. Controls of no NADPH regenerating system at zero and 30 minutes were also prepared and analyzed.

| SMILES | IC50 (human TLR8) [nM] | Clearance of Human microsome [1] [mL/min/kg] |
| --- | --- | --- |
| C[C@@H]1CN(c2ccc(C#N)c3ncccc23)C[C@H](CN2CC(n3cc4c(n3)CCN[C@@H]4C)C2)O1 [Example 21, 5-[(2R,6S)-2-methyl-6-[[3-[(4R)-4-methyl-4,5,6,7-tetrahydropyrazolo[4,3-c]pyridin-2-yl]azetidin-1-yl]methyl]morpholin-4-yl]quinoline-8-carbonitrile] | 72 | 6.2 |
| Cc1c2c(nn1C1CN(C[C@H]3CN(c4ccc(C#N)c5ncccc45)C[C@@H](C)O3)C1)CNCC2 [Example 43, 5-[(2R,6S)-2-methyl-6-[[3-(3-methyl-4,5,6,7-tetrahydropyrazolo[3,4-c]pyridin-2-yl)azetidin-1-yl]methyl]morpholin-4-yl]quinoline-8-carbonitrile] | 34 | 6.5 |
| C[C@@H]1CN(c2ccc(C#N)c3ncccc23)C[C@H](CN2CC(n3cc4c(n3)CNCC4)C2)O1 [Example 4, 5-[(2R,6S)-2-methyl-6-[[3-(4,5,6,7-tetrahydropyrazolo[3,4-c]pyridin-2-yl)azetidin-1-yl]methyl]morpholin-4-yl]quinoline-8-carbonitrile] | 9 | 6.2 |
| C[C@@H]1CN(c2ccc(C#N)c3ncccc23)C[C@H](CN2CC(n3cc4c(n3)[C@H](C)NCC4)C2)O1 (single isomer, unassigned) [Example 34] | 16 | 6.4 |
| C[C@@H]1CN(c2ccc(C#N)c3ncccc23)C[C@H](CN2CC(n3ncc4c3CCN[C@@H]4C)C2)O1 [Example 20, 5-[(2R,6S)-2-methyl-6-[[3-[(4R)-4-methyl-4,5,6,7-tetrahydropyrazolo[4,3-c]pyridin-1-yl]azetidin-1-yl]methyl]morpholin-4-yl]quinoline-8-carbonitrile] | 28 | 6.2 |
| C[C@@H]1Cc2cn(C3CN(C[C@H]4CN(c5ccc(C#N)c6ncccc56)C[C@@H](C)O4)C3)nc2CN1 (single isomer, unassigned) [Example 30] | 14 | 6.2 |
| C[C@@H]1Cc2c(cnn2C2CN(C[C@H]3CN(c4ccc(C#N)c5ncccc45)C[C@@H](C)O3)C2)CN1 [Example 16, 5-[(2R,6S)-2-methyl-6-[[3-[(6R)-6-methyl-4,5,6,7-tetrahydropyrazolo[4,3-c]pyridin-1-yl]azetidin-1-yl]methyl]morpholin-4-yl]quinoline-8-carbonitrile] | 16 | 7.2 |
| C[C@@H]1CN(c2ccc(C#N)c3ncccc23)C[C@H](CN2CC(n3cc4c(n3)CNC4)C2)O1 [Example 11, 5-[(2S,6R)-2-[[3-(5,6-dihydro-4H-pyrrolo[3,4-c]pyrazol-2-yl)azetidin-1-yl]methyl]-6-methyl-morpholin-4-yl]quinoline-8-carbonitrile] | 19 | 6.2 |
| C[C@@H]1CN(c2ccc(C#N)c3ncccc23)C[C@H](CN2CCC(n3ncc4c3CCNC4)CC2)O1 [Example 35, 5-[(2R,6S)-2-methyl-6-[[4-(4,5,6,7-tetrahydropyrazolo[4,3-c]pyridin-1-yl)-1-piperidyl]methyl]morpholin-4-yl]quinoline-8-carbonitrile] | 25 | 7.7 |
| C[C@@H]1CN(c2ccc(C#N)c3ncccc23)C[C@H](CN2CCC(n3cc4c(n3)CCNC4)CC2)O1 [Example 36, 5-[(2R,6S)-2-methyl-6-[[4-(4,5,6,7-tetrahydropyrazolo[4,3-c]pyridin-2-yl)-1-piperidyl]methyl]morpholin-4-yl]quinoline-8-carbonitrile] | 40 | 6.2 |
| C[C@@H]1Cc2nn(C3CN(C[C@H]4CN(c5ccc(C#N)c6ncccc56)C[C@@H](C)O4)C3)cc2CN1 [Example 17, 5-[(2R,6S)-2-methyl-6-[[3-[(6R)-6-methyl-4,5,6,7-tetrahydropyrazolo[4,3-c]pyridin-2-yl]azetidin-1-yl]methyl]morpholin-4-yl]quinoline-8-carbonitrile] | 18 | 6.2 |
